# Laboratory results: patent US20260048051A1, “TREATMENT OF INFLAMMATORY BOWEL DISEASE” (Atomwise Inc., priority 2024, published 2026)
# Columns and labels:
# [1] = Brain exposure pharmacokinetics in rats; type: in vivo; conditions: male Sprague Dawley rats, oral gavage 10 mg/kg
# Protocol: The brain exposure of exemplary compounds, e.g., 1, 2, and 4 were evaluated in male Sprague Dawley rats after oral gavage administration at 10 mg/kg. The formulation was 5% DMSO+10% PEG400 in saline. Rats were fasted overnight with food returned 4 hours post-dose. CSF was collected by direct needle puncture into the cisterna magna.
# For both rat and mouse studies, brain tissue was washed with 3 volumes of saline prior to homogenization. Brain tissue was homogenized with 3 volumes (v/w) of phosphate buffered saline. Plasma, brain homogenate, and CSF samples (rat only) were analyzed by LC-MS/MS and the concentration of test compound at each time point was determined by linear regression.
# Pharmacokinetic parameters were calculated from the plasma, brain, and CSF concentrations by non-compartmental modeling using WinNonlin 8.2.
# IFNα/pSTAT5 = assay: Whole blood potency (IFNα/pSTAT5), mouse; type: cell-based; conditions: read-out: Cellular Whole Blood Potency IC50 (IFNα/pSTAT5), Mouse
# Description: Exemplary compounds of the invention, compounds 1 and 2 were compared in this assay.
# GM-CSF induced pSTAT5 = GM-CSF induced pSTAT5 assay in CellSensor irf1-bla TF-1 cells; type: cell-based; conditions: Homo sapiens, GM-CSF 1 ng/mL, read-out: Cellular selectivity (GM-CSF induced pSTAT5)
# Protocol: The CellSensor irfl-bla TF-1 cell line (LifeTechnologies, K1657) was cultured in RPMI 1640 Medium (Invitrogen 72400-047), 10% Fetal Bovine Serum (Invitrogen, 26400044), 1 mM Sodium pyruvate (Life Technologies, 11360039), 1% MEM NEAA (Life Technologies, 11140-035), 2 ng/ml of human recombinant GM-CSF (Fisher, PHC2015), 1% Penicillin/Streptomycin (Life Technologies, 15140-122) and 5 µg/ml of Blasticidin (ThermoFisher, A1113903).
# The cell line was seeded in a T75 flask at 13×10^6 cells/50 mL in starvation medium (Opti-MEM™ I Reduced Serum Medium, no phenol red (Life Technologies, 11058-021), 1 mM Na pyruvate (Life Technologies, 11360039), 1% MEM NEAA (Life Technologies, 11140-035), and 1% Penicillin/Streptomycin (Life Technologies, 15140-122)) for 16 hours at 37° C. under 5% CO2 the day before the assay.
# For the assay, CellSensor irfl-bla TF-1 cells were seeded at 30 000 cells/32 μL (starvation medium)/well in a 384-well plate.
# Compounds were added on the cells in 4 μL (starvation medium)/well at 10× the final concentration. They were incubated for 30 minutes at 37° C.
# Human recombinant carrier-free GM-CSF (ThermoFisher, ref PHC2015) was added to the wells in 4 μL (starvation medium)/well at 10×. The final concentration was 1 ng/mL. Control wells without GM-CSF treatment were added. Plates were incubated for 5 hours at 37° C.
# 6× LiveBlazer-FRET substrate (Invitrogen, K1085) was added to the wells at 8 μL/well. The substrate was prepared shortly before use by mixing 6 μL of solution A and 60 μL of solution B to 934 μL of solution C. Plates were incubated for 2.5 hours at room temperature in the dark. The plates were read on an Envision (Perkin Elmer) with an excitation at a wavelength of 409 nm and two wavelengths for the emission 520 nm and 450 nm. The ratio between the […] emission was used to calculate the IC50s.
# The IC50 for the inhibition of pSTAT5 was calculated with the XLfit software using the 4 Parameter Logistic Model or Sigmoidal Dose-Response Model (model 205).
# Caco-2 permeability = type: in vitro ADME; conditions: human, Caco-2
# Protocol: (§1) Caco-2 cells were cultured for 21 days on a Transwell 96-well plate. The basal plate for changing the media was prepared by filling all wells of a 96-well sterile plate with 200 μL of Caco-2 media and placing it into an incubator. The apical section of the plate was lifted and lowered onto an empty basal plate. From the apical compartments containing 115 μL of cell media, 85 μL of the cell culture media was aspirated and replaced with 85 μL of fresh cell culture media. The basal plate was removed from the incubator and placed into a cell culture hood, while the apical section of the plate was returned to the basal plate and placed into the incubator.
# (§2) Cells were fed one or two days prior to assay. A fresh basal plate was prepared by adding 200 μL of cell media to all wells and placing the plate in an incubator. The plate was then transferred from the incubator to the cell culture hood, where the apical compartment was lifted and placed onto an empty basal plate. 85 μL of media was removed from the apical wells and replaced with 85 μL of fresh media. The apical compartment of the plate was transferred to a basal plate and returned to the incubator.
# (§3) On the day of the assay, 1 mL of 500-fold diluted compound solution was prepared in transport buffer. 62.5 μl of the prepared solution was used for the apical compartment, while 130 μl was used in the basal compartment. TEER measurements of the plate were taken. The dilutions were incubated for 15 minutes at 37° C. Basal assay plates were prepared by filling A→B wells of a 96-well sterile plate with 250 μl of transport buffer or B→A wells with 130 μl of diluted compound/control and 130 μl of HBSS and mixing 6-10 times with a multichannel pipette. 10 μl of samples were then collected form the basal compartments of the B→A wells for TO into the Quench Plates (shallow polypropylene plate, leaving 250 μl in each well). The basal assay plates were then placed into the incubator until use. The Caco-2 plate was placed in the hood and the apical section was lifted and placed onto an empty basal plate. 85 μl of the Caco-2 media was removed from the apical compartments containing 115 μl of cell culture media and replaced with 85 μl of fresh transport media. This was repeated twice for a total of 3 washes. 52.5 μl of buffer was then removed from the apical wells of the Caco-2 ready plates (leaving 62.5 μl buffer in the wells) and replaced with 62.5 of the diluted compound or control for the A→B wells or 52.5 μl of fresh transport buffer for the B→A wells. The total volume in the apical wells was assumed to be 125 μl for A→B and 115 μl for B→A. The apical wells were gently mixed 2-3 times with a multichannel pipette set to 50 μl and 10 μl of sample was collected from the apical compartments of A→B wells for TO into the TO Quench plates (shallow polypropylene plate). The total volume in all apical wells was 115 μl. The basal plate was removed from the incubator and transferred to the apical section of the basal plate and returned to the incubator. The TO samples were then diluted with 40 μl of transport buffer and 100 μl of quench solution was added. The cells were then kept cold. At T 2 hrs, 10 μl of sample was collected from all apical compartments and B→A basal compartments. 50 μl of sample was collected from the A→B compartments. The collected 10 μl of sample was then diluted with 40 μl of transport buffer. 100 μl of quench solution was then added to all T 2 hrs samples. After mixing, 50 μl of all TO and T 2 hrs samples were transferred to sample plates and diluted with 100 μl MilliQ water for bioanalysis. Final TEER measurements were taken after the completion of the assay.
# Caco-2 cells = assay: Caco-2 permeability; type: in vitro ADME
# Protocol: as §1, §2, §3
Structure (SMILES),"Brain Kpu, u [1]",IC50 (IFNα/pSTAT5),IC50 (GM-CSF induced pSTAT5),Papp A→B at 2 h (Caco-2 permeability),efflux ratio at 2 h (Caco-2 permeability),"Caco-2 Papp, A-B (Caco-2 cells)"
"C[C@@H](c1ccc(Nc2cc(Nc3ncccc3S(C)(=O)=O)ncn2)nc1)N1CC2(COC2)C1 [Compound 1, (S)—N^4-(5-(1-(2-oxa-6-azaspiro[3.3]heptan-6-yl)ethyl)pyridin-2-yl)-N^6-(3-(methylsulfonyl)pyridin-2-yl)pyrimidine-4,6-diamine]",†† (†† 0.1-0.2 u),0.116 µM,4 to 10 µM,~60.2 nm/s,1.38,60.2 nm/s
"C[C@@H](c1ccc(Nc2cc(Nc3ncc(F)cc3S(C)(=O)=O)ncn2)nc1)N1CC2(COC2)C1 [Compound 2, (S)—N^4-(5-(1-(2-oxa-6-azaspiro[3.3]heptan-6-yl)ethyl)pyridin-2-yl)-N^6-(5-fluoro-3-(methylsulfonyl)pyridin-2-yl)pyrimidine-4,6-diamine]",† († <0.1 u),0.0643 µM,> 10 µM,~72 nm/s,2.2,75.1 nm/s
